{
  "source": "ChEMBL document CHEMBL1128016",
  "about": "“5-Cyano-2-thiouracils and their derivatives: a new class of leishmanicides” (1994)",
  "data": [
    {"tested_on": "Leishmania donovani", "assay": "In vivo anti-leishmanial activity was determined against hamster amastigotes of Leishmania donovani", "type": "functional", "parameters": "concentration or dose not given beside the values", "units": {"Inhibition": "%"}, "values": [
      {"molecule": "C=CCSc1nc(O)c(C#N)c(-c2ccc(C)cc2)n1", "Inhibition": 75},
      {"molecule": "C=CCSc1nc(O)c(C#N)c(-c2cccc(OC)c2)n1", "Inhibition": 80},
      {"molecule": "COc1cccc(-c2nc(SCc3ccccc3)nc(O)c2C#N)c1", "Inhibition": 0},
      {"molecule": "COc1cccc(-c2nc3n(c(=O)c2C#N)CCCS3)c1", "Inhibition": 63},
      {"molecule": "N#Cc1c(O)nc(S)nc1-c1ccccc1Cl", "Inhibition": 0},
      {"molecule": "COc1cccc(-c2nc(SC)n(C)c(=O)c2C#N)c1", "Inhibition": 61},
      {"molecule": "COc1cccc(-c2nc(S)nc(O)c2C#N)c1", "Inhibition": 78},
      {"molecule": "CSc1nc(-c2ccc(C)cc2)c(C#N)c(=O)n1C", "Inhibition": 50},
      {"molecule": "N#Cc1c(O)nc(S)nc1-c1ccc(F)cc1", "Inhibition": 63},
      {"molecule": "N#Cc1c(Nc2ccc(F)cc2)nc(SCc2ccccc2)nc1-c1cccnc1", "Inhibition": 78},
      {"molecule": "Cc1cccc(-c2nc(SCc3ccccc3)nc(O)c2C#N)c1", "Inhibition": 0},
      {"molecule": "Cc1ccc(-c2nc3n(c(=O)c2C#N)CCCS3)cc1", "Inhibition": 62},
      {"molecule": "COc1cccc(-c2nc(SC)nc(Cl)c2C#N)c1", "Inhibition": 30},
      {"molecule": "N#Cc1c(Nc2ccccc2)nc(SCc2ccccc2)nc1-c1cccnc1", "Inhibition": 57},
      {"molecule": "COc1cccc(-c2nc(SCc3ccc(Cl)cc3)nc(O)c2C#N)c1", "Inhibition": 85},
      {"molecule": "N#Cc1c(O)nc(SCc2ccc(Cl)cc2)nc1-c1cccnc1", "Inhibition": 84},
      {"molecule": "Cc1ccc(-c2nc(SCc3ccccc3)[nH]c(=O)c2C#N)cc1", "Inhibition": 82},
      {"molecule": "COc1cccc(-c2nc3n(c(=O)c2C#N)CCS3)c1", "Inhibition": 73},
      {"molecule": "CSc1nc(Cl)c(C#N)c(-c2ccc(C)cc2)n1", "Inhibition": 36},
      {"molecule": "CCC1NC(=S)NC(=O)C1C#N", "note": "(centres undefined)", "Inhibition": 80},
      {"molecule": "Cc1ccc(-c2nc3n(c(=O)c2C#N)CCS3)cc1", "Inhibition": 65},
      {"molecule": "Cc1ccc(-c2nc(S)nc(O)c2C#N)cc1", "Inhibition": 63},
      {"molecule": "CCc1nc(SCc2ccc(Cl)cc2)nc(O)c1C#N", "Inhibition": 76}
    ]},
    {"tested_on": "Leishmania donovani", "assay": "In vivo anti-leishmanial activity against hamster amastigotes of Leishmania donovani at a dose of 10 mg/kg for a period of 5 days", "type": "functional, organism-based", "parameters": "dose 10 mg/kg", "units": {"inhibition": "%"}, "values": [
      {"molecule": "Sodium stibogluconate", "inhibition": 86}
    ]}
  ]
}
